In brackets after ≈: the same amount, converted by molar mass. Where two headings read alike, the source gives them in different places.
Test system: M. tuberculosis
Assay: Antibacterial activity against tuberculosis bacteria, resazurin (REMA) MIC50
Type: cell-based
Conditions: Mycobacterium tuberculosis

C/C=C(\NC(=O)c1csc(-c2csc(-c3ccc4c(n3)-c3csc(n3)[C@H]([C@@H](C)O)NC(=O)c3csc(n3)[C@H](C(C)C)NC(=O)c3csc(n3)/C(=C/C)NC(=O)[C@H]([C@@H](C)O)NC(=O)c3csc-4n3)n2)n1)C(=O)NCC(C)=O [Micrococcin P2] gave an MIC50 (Extensively Drug Resistant #3 (XDR-3), read-out: MIC50) of 0.375 µM (≈ 0.428 µg/mL), an MIC50 (Extensively Drug Resistant #4 (XDR-4), read-out: MIC50) of 0.094 µM (≈ 0.107 µg/mL) and an MIC50 (Extensively Drug Resistant #5 (XDR-5), read-out: MIC50) of 0.114 µM (≈ 0.13 µg/mL). It also gave an MIC50 (Extensively Drug Resistant #6 (XDR-6), read-out: MIC50) of 0.722 µM (≈ 0.825 µg/mL), an MIC50 (Extensively Drug Resistant #10 (XDR-7)) of 0.209 µM (≈ 0.239 µg/mL) and an MIC50 (Multi Drug Resistant isolate #3 (MDR-3), read-out: MIC50) of 0.073 µM (≈ 0.0834 µg/mL). For the same compound, the MIC50 (Multi Drug Resistant isolate #4 (MDR-4), read-out: MIC50) was 0.169 µM (≈ 0.193 µg/mL), the MIC50 (Multi Drug Resistant isolate #11 (MDR-11), read-out: MIC50) was 0.051 µM (≈ 0.0583 µg/mL) and the MIC50 (Multi Drug Resistant isolate #20 (MDR-20), read-out: MIC50) was 2.3 µM (≈ 2.63 µg/mL). The MIC50 (Multi Drug Resistant isolate #21 (MDR-21), read-out: MIC50) was 0.044 µM (≈ 0.0503 µg/mL) and the MIC50 (Multi Drug Resistant isolate #30 (MDR-30), read-out: MIC50) was 0.304 µM (≈ 0.347 µg/mL).

Reference: patent US20240277800A1, “PHARMACEUTICAL COMPOSITION COMPRISING MACROCOSINE COMPOUND AND METHOD FOR PREPARING MACROCOSINE COMPOUND” (priority 2021, published 2024)
